From ChEMBL document CHEMBL5126521, “Analgesic Opioid Ligand Discovery Based on Nonmorphinan Scaffolds Derived from Natural Sources” (J Med Chem, 2022)
Square brackets hold non-standard residues; d marks the D form. Peptide text beside a SMILES is read from it. βAla = NCCC(=O)O

How the values were obtained:
[1] = tested on: Mus musculus; test: Antinociceptive activity in po dosed mouse by tail flick assay; format: functional
[2] = biological target: T1, Kappa-type opioid receptor (Homo sapiens, UniProt P41145); test: Agonist activity at KOP (unknown origin); format: functional
[3] = biological target: T2, Delta-type opioid receptor (Homo sapiens, UniProt P41143); test: Binding affinity to DOP (unknown origin)
[4] = biological target: T2, Delta-type opioid receptor; test: Inhibition of DOP (unknown origin)
[5] = tested on: Mus musculus; test: Antinociceptive activity in ip dosed mouse assessed as tail flick latency; format: functional
[6] = Toxicity in ip dosed mouse assessed as antinociceptive tolerance; format: organism-based; conditions: in vivo
[7] = tested on: Mus musculus; test: Antinociceptive activity in ip dosed C57BL/6J mouse assessed as tail withdrawal latency from warm water; format: functional
[8] = Toxicity in rat assessed as inhibition of hypercapnic respiratory response at 9 to 120 nmol icv or sc; conditions: in vivo, icv_or_intrathecal, dose 9-120 nmol
[9] = biological target: Delta-type opioid receptor (Rattus norvegicus, UniProt P33533); test: Displacement of [3H][DAla2]deltorphin-I from rat brain DOP incubated for 90 mins by scintillation counter; format: tissue-based
[10] = biological target: Mu-type opioid receptor (Mus musculus, UniProt P42866); test: Antagonist activity at mouse vas deferns MOP; format: functional
[11] = biological target: Mu-type opioid receptor (Rattus norvegicus, UniProt P33535); test: Displacement of [3H]DAGO from rat brain MOP incubated for 90 mins by scintillation counter; format: tissue-based
[12] = biological target: T3, Mu-type opioid receptor (Cavia porcellus, UniProt P97266); test: Antagonist activity at guinea pig ileum MOP; format: functional, tissue-based
[13] = biological target: T4, Kappa-type opioid receptor (Cavia porcellus, UniProt P41144); test: Displacement of [3H]U69593 from guinea pig brain KOP incubated for 90 mins by scintillation counter; format: tissue-based
[14] = organism: Mus musculus; test: Antinociceptive activity in mouse; format: functional
[15] = tested on: Rattus norvegicus; test: Antinociceptive activity in rat administered icv; format: functional
[16] = tested on: Rattus norvegicus; test: Antinociceptive activity in rat administered iv; format: functional
[17] = tested on: Rattus norvegicus; test: Antinociceptive activity in rat at 9 to 120 nmol icv or sc; format: functional; conditions: dose 9-120 nmol
[18] = Toxicity in sc dosed mouse assessed as antinociceptive activity tolerance by tail flick assay; format: organism-based; conditions: in vivo
[19] = Displacement of [3H]naltrindole from guinea pig brain membrane DOP incubated for 3 hr by scintillation counter analysis; format: cell membranes, Cavia porcellus
[20] = biological target: T5, Mu-type opioid receptor (Homo sapiens, UniProt P35372); test: Binding affinity to MOP (unknown origin)
[21] = biological target: T3, Mu-type opioid receptor; test: Displacement of [3H]DAMGO from guinea pig brain membrane MOP incubated for 1 hr by scintillation counter analysis; format: cell membranes
[22] = tested on: Mus musculus; test: Antinociceptive activity in po dosed mouse; format: functional
[23] = tested on: Mus musculus; test: Antinociceptive activity in sc dosed mouse by tail flick assay; format: functional
[24] = tested on: Mus musculus; test: Antinociceptive activity in po dosed mouse by hot plate assay; format: functional
[25] = biological target: T6, Kappa-type opioid receptor (Mus musculus, UniProt P33534); test: Inhibition of mouse KOP
[26] = biological target: T1, Kappa-type opioid receptor; test: Inhibition of KOP (unknown origin)
[27] = biological target: T5, Mu-type opioid receptor; test: Agonist activity at MOP (unknown origin); format: functional
[28] = tested on: Mus musculus; test: Antinociceptive activity in sc dosed mouse by hot plate assay; format: functional
[29] = biological target: T4, Kappa-type opioid receptor; test: Displacement of [3H]U69593 from guinea pig brain membrane KOP incubated for 1 hr by scintillation counter analysis; format: cell membranes
[30] = tested on: Mus musculus; test: Antinociceptive activity in sc dosed visceral pain mouse model; format: functional
[31] = biological target: Delta-type opioid receptor (Mus musculus, UniProt P32300); test: Inhibition of mouse DOP
[32] = Toxicity in po dosed mouse assessed as antinociceptive activity tolerance by tail flick assay; format: organism-based; conditions: in vivo
[33] = biological target: T1, Kappa-type opioid receptor; test: Agonist activity at KOP (unknown origin) assessed as inhibition of forskolin-induced cAMP accumulation; format: functional
[34] = biological target: T5, Mu-type opioid receptor; test: Agonist activity at human MOP stably expressed in CHO-K1 cells assessed as inhibition of forskolin-induced cAMP accumulation; format: functional, cell-based
[35] = tested on: Mus musculus; test: Antinociceptive activity in sc dosed mouse; format: functional
[36] = tested on: Mus musculus; test: Antinociceptive activity in po dosed visceral pain mouse model; format: functional
[37] = Toxicity in po dosed mouse assessed as antinociceptive activity tolerance by hot plate assay; format: organism-based; conditions: in vivo
[38] = biological target: T5, Mu-type opioid receptor; test: Inhibition of MOP (unknown origin)
[39] = biological target: T6, Kappa-type opioid receptor; test: Agonist activity at C57BL6/J mouse brain KOP; format: functional, tissue-based
[40] = biological target: T6, Kappa-type opioid receptor; test: Agonist activity at C57BL6/J mouse brain KOP by calcium mobilization assay; format: functional, tissue-based
[41] = biological target: T6, Kappa-type opioid receptor; test: Displacement of [3H]U69593 from C57BL6/J mouse brain KOP; format: tissue-based
[42] = tested on: Mus musculus; test: Antinociceptive activity in sc dosed mouse assessed as tail flick latency; format: functional
[43] = tested on: Mus musculus; test: Antinociceptive activity in icv dosed mouse assessed as tail flick latency; format: functional
[44] = Displacement of [3H]DPDPE from calf frontal cortex membrane Delta-type opioid receptor by competitive binding assay; format: cell membranes, Bos taurus
[45] = Toxicity in mouse assessed as inhibition of gastrointestinal transit at 3.2 to 32 pmol IT or sc by charcoal meal test; format: organism-based; conditions: in vivo, other, dose 3.2-32 pmol
[46] = tested on: Mus musculus; test: Antinociceptive activity in mouse at 3.2 to 32 pmol IT or sc; format: functional; conditions: dose 3.2-32 pmol
[47] = biological target: T6, Kappa-type opioid receptor; test: Displacement of [3H]U69593 from mouse brain membrane KOP by competitive binding assay; format: cell membranes
[48] = biological target: Mu-type opioid receptor (Bos taurus, UniProt P79350); test: Displacement of [3H]DAMGO from calf thalamus membrane MOP by competitive binding assay; format: cell membranes

CC[C@@H]1CN2CCc3c([nH]c4cccc(OC)c34)[C@@H]2C[C@@H]1/C(=C\OC)C(=O)OC
ED50 [1]: 2.1 mg/kg | EC50 [2]: 8500 nM | Ki [3]: > 10000 nM | IC50 [4]: > 10000 nM

COC(=O)[C@@H]1C=C(OC(=O)c2ccccc2)C(=O)[C@H]2[C@@]1(C)CC[C@H]1C(=O)O[C@H](c3ccoc3)C[C@]21C
ED50 [5]: 5 mg/kg | ED50 [6]: 7.9 mg/kg

O=C1NCCC(=O)N2CCC[C@@H]2C(=O)N[C@@H](Cc2ccccc2)C(=O)N[C@H]1Cc1c[nH]c2ccccc12 (cyclo(FW[βAla][dP]))
ED50 [7]: 0.64 mg/kg

C[C@@H](NC(=O)[C@@H](N)Cc1ccc(O)cc1)C(=O)N[C@@H](Cc1ccccc1)C(=O)NCC(=O)N[C@@H](Cc1ccc(O)cc1)C(=O)N1CCC[C@H]1C(=O)N[C@@H](CCCCN)C(N)=O
Activity [8]: 45.9 µmol/kg | Ki [9]: 1100 nM | IC50 [10]: 52 nM | Ki [11]: 0.09 nM | IC50 [12]: 1.7 nM | Ki [13]: 617 nM | ED50 [14]: 0.22 µmol/kg | ED50 [15]: 0.03 pmol | ED50 [16]: 0.06 µmol/kg | ED50 [17]: 21.5 µmol/kg

CC[C@@H]1CN2CC[C@]3(O)c4c(cccc4OC)NC3[C@@H]2C[C@@H]1/C(=C\OC)C(=O)OC (stereo partly drawn)
ED50 [18]: 1.19 mg/kg | Ki [19]: 96 nM | Ki [20]: 47 nM | Ki [21]: 11 nM | ED50 [22]: 1.1 mg/kg | ED50 [23]: 0.8 mg/kg | ED50 [1]: 4.4 mg/kg | ED50 [24]: 2.2 mg/kg | Ki [3]: 219 nM | IC50 [25]: 7900 nM | IC50 [26]: 691 nM | IC50 [4]: 2520 nM | EC50 [27]: 34.5 nM | ED50 [28]: 0.93 mg/kg | Ki [29]: 85 nM | ED50 [30]: 0.15 mg/kg | IC50 [31]: 10000 nM | ED50 [32]: 7.5 mg/kg

COC(=O)[C@@H]1C[C@H](OC(=O)c2ccc(CO)cc2)C(=O)[C@H]2[C@@]1(C)CC[C@H]1C(=O)O[C@H](c3ccoc3)C[C@]21C
EC50 [33]: > 10000 nM | EC50 [34]: 0.03 nM | ED50 [5]: 2.35 mg/kg

CC[C@@H]1CN2CC[C@@]34OCCO[C@@]3(Nc3ccc(F)c(OC)c34)[C@@H]2C[C@@H]1/C(=C\OC)C(=O)OC
Ki [19]: 350 nM | Ki [21]: 7.3 nM | ED50 [23]: 0.6 mg/kg | ED50 [1]: 2.8 mg/kg | ED50 [24]: 3 mg/kg | ED50 [35]: 0.1 mg/kg | ED50 [36]: 0.6 mg/kg | ED50 [37]: 1.3 mg/kg | ED50 [28]: 0.7 mg/kg | Ki [29]: 18 nM | ED50 [32]: 11.1 mg/kg

C=C[C@H]1CN2CCc3c([nH]c4cccc(OC)c34)[C@@H]2C[C@@H]1/C(=C\OC)C(=O)OC
Ki [3]: > 10000 nM | IC50 [26]: 10000 nM | IC50 [4]: > 10000 nM | IC50 [38]: 2200 nM

CCC(=O)O[C@H]1C[C@@H](C(=O)OC)[C@]2(C)CC[C@H]3C(=O)O[C@H](c4ccoc4)C[C@]3(C)[C@H]2C1=O
EC50 [39]: 17 nM | EC50 [40]: 102 nM | Ki [41]: 32.6 nM

COC(=O)[C@@H]1C[C@H](OC(C)=O)C(=O)[C@H]2[C@@]1(C)CC[C@H]1C(=O)O[C@H](c3ccoc3)C[C@]21C [SALVINORIN A]
ED50 [42]: 2.1 mg/kg | ED50 [43]: 1.5 µg

Cc1cc(O)cc(C)c1C[C@H](N)C(=O)N[C@H](CCCNC(=N)N)C(=O)N[C@@H](Cc1ccccc1)C(=O)N[C@@H](CCCCN)C(N)=O
Ki [44]: 116 nM | ED50 [45]: 0.006 mg/kg | ED50 [46]: 0.0655 mg/kg | Ki [47]: 11.5 nM | Ki [48]: 0.14 nM
